In publication PMC6477540 (Journal of medicinal chemistry, 2018):

Assays:
OVCAR5 cells = assay: Cell viability and synergy with cisplatin; assay type: cell-based; conditions: at 1 μM and 10 μM, 72 h
PEO1 cells = assay: Cell viability and synergy with cisplatin; assay type: cell-based; conditions: at 1 μM and 10 μM, 72 h

| Compound | Cytotoxicity of compound alone, OVCAR5 (OVCAR5 cells) | Cytotoxicity of compound alone, PEO1 (PEO1 cells) |
| --- | --- | --- |
| O=c1c2cnn(C3COC3)c2nc(SCc2cccc(F)c2)n1-c1ccccc1 [Compound 12g, 6-((3-Fluorobenzyl)thio)-1-(oxetan-3-yl)-5-phenyl-1H-pyrazolo[3,4-d]pyrimidin-4(5H)-one] | did not show cytotoxicity | did not show cytotoxicity |
| O=c1c2cn(C3COC3)nc2nc(SCc2cccc(F)c2)n1-c1ccccc1 [Compound 13g, 6-((3-Fluorobenzyl)thio)-2-(oxetan-3-yl)-5-phenyl-2H-pyrazolo[3,4-d]pyrimidin-4(5H)-one] | did not show cytotoxicity | did not show cytotoxicity |
